Source: patent US9790169B2, “IDO inhibitors” (BRISTOL-MYERS SQUIBB COMPANY, priority 2015, dated 2017)

target: human IDO1 (Homo sapiens, UniProt P14902); assay: Assessment of human IDO-1 inhibitory activity in Hela cells (Interferon-gamma stimulated HeLa cells, Ehrlich reagent, absorbance 490 nm); format: cell-based; parameters: endogenous in cells; host or cells: HeLa cells stimulated with interferon-gamma; conditions: Hela Human IDO-1 cellular assay
Summary of the method: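 IDO activity induced by 18 h IFN-γ (human 10 ng/ml or murine 5 ng/ml, final) after 1 h compound pre-treatment of HeLa cells at 37 °C. Supernatant kynurenine detected via Ehrlich reagent absorbance at 490 nm following 3% TCA at 50 °C; IC50 set against no-IFN-γ and untreated-stimulated controls.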

Chain of human IDO1 (P14902 whole entry): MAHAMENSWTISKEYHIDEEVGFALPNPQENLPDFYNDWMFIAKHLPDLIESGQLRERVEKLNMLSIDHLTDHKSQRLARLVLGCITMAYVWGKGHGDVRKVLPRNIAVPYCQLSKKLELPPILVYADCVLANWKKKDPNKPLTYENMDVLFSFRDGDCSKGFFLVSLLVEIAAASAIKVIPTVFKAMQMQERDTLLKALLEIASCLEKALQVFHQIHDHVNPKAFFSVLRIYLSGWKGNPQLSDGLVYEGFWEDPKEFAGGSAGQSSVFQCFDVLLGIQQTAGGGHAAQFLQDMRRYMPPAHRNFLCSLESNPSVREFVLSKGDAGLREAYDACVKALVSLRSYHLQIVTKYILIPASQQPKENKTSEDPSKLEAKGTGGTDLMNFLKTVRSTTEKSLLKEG

Molecule | IC50 [nM]
CCC(CC(=O)O)c1ccc(N2C[C@@H]3C[C@H]2CN3CC(F)F)c(Nc2ccc(C#N)cc2)c1 (single isomer, unassigned) [Example 450] | > 50
CCN(c1ccc(C(C)CC(=O)O)cc1Nc1ccc2nc(C)sc2c1)C1CCOCC1 (single isomer, unassigned) [Example 629, 3-(4-(ethyl(tetrahydro-2H-pyran-4-yl)amino)-3-((2-methylbenzo[d]thiazol-6-yl)amino)phenyl)butanoic acid] | < 50
COCC(CC(=O)O)c1ccc(N2C[C@@H](C)O[C@@H](C)C2)c(Nc2ccc(C#N)cc2)c1 (single isomer, unassigned) [602 E1] | > 50
CCN(c1ccc([C@@H](COC)CC(=O)O)cc1Nc1ccc(C#N)c(Cl)c1)C1CCOCC1 (single isomer, unassigned) [Example 381] | < 50
CCN(c1ccc([C@@H](COC)CC(=O)O)cc1NC(=O)Nc1ccc(Cl)cc1F)C1CCOCC1 (single isomer, unassigned) [Example 423] | > 50
3-(4-((1,1-dioxidotetrahydro-2H- thiopyran-4-yl)(ethyl)amino)-3- ((4-fluorophenyl)amino)phenyl)- 4-isopropoxybutanoic acid [Example 340] | < 50
CCC(CC(=O)O)c1ccc(N(C)C2CCOCC2)c(Nc2ccc(C#N)cc2)c1 (single isomer, unassigned) [Example 866, 3-(3-((4-Cyanophenyl)amino)-4-(methyl(tetrahydro-2H-pyran-4-yl)amino)phenyl)pentanoic acid] | < 50
CCCN(c1ccc([C@@H](COC)CC(=O)O)cc1Nc1ccc(C#N)cc1)C1CCOCC1 (single isomer, unassigned) [Example 558] | < 5
COCC(CC(=O)O)c1ccc(N2CCOC(C)C2)c(NC(=O)Nc2ccc(Cl)cc2F)c1 (single isomer, unassigned) [Example 1314 D1, 3-(3-(3-(4-Chloro-2-fluorophenyl)ureido)-4-(2-methylmorpholino)phenyl)-4-methoxybutanoic acid] | > 50
CCN(c1ccc([C@@H](COC)CC(=O)O)cc1Nc1ncc(Cl)cn1)C1CCOCC1 (single isomer, unassigned) [Example 357] | < 50
CCCN(c1ccc(C(C)(C)CC(=O)O)cc1Nc1cnc(OC)nc1)C1CCS(=O)(=O)CC1 [Example 189, 3-(4-((1,1-dioxidotetrahydro-2H-thiopyran-4-yl)(propyl)amino)-3-((2-methoxypyrimidin-5-yl)amino)phenyl)-3-methylbutanoic acid] | > 50
CCCN(c1ccc([C@H](COC)CC(=O)O)cc1Nc1ccc(OC)nc1)C1CCOCC1 (single isomer, unassigned) [Example 575] | < 50
CCOc1ncc(Nc2cc([C@H](CC)CC(N)=O)ccc2N(CC)C2CCOCC2)cn1 [Example 1332, (R)-3-(3-((2-Ethoxypyrimidin-5-yl)amino)-4-(ethyl(tetrahydro-2H-pyran-4-yl)amino)phenyl)pentanamide] | > 50
CCOc1ncc(Nc2cc(C(CC(=O)O)C3CC3)ccc2N(CC)C2CCOCC2)cn1 (single isomer, unassigned) [Example 36, 3-cyclopropyl-3-(3-((2-ethoxypyrimidin-5-yl)amino)-4-(ethyl(tetrahydro-2H-pyran-4-yl)amino)phenyl)propanoic acid] | < 50
CCOc1ncc(Nc2cc(C(CC)CC(=O)O)ccc2N2CCC(c3ccccc3)CC2)cn1 (single isomer, unassigned) [Example 47 Enantiomer 2, 3-(3-((2-Ethoxypyrimidin-5-yl)amino)-4-(4-phenylpiperidin-1-yl)phenyl)pentanoic acid] | < 50
CCCN(c1ccc([C@H](CC)CC(=O)O)cc1NC(=O)Nc1ccc(Cl)cc1F)C1CCOCC1 (single isomer, unassigned) [Example 555] | < 5
COCCN(c1ccc(C(C)(C)CC(=O)O)cc1NC(=O)Nc1ccc(C#N)cc1)C1CCOCC1 [Example 19, 3-(3-(3-(4-cyanophenyl)ureido)-4-((2-methoxyethyl)(tetrahydro-2H-pyran-4-yl)amino)phenyl)-3-methylbutanoic acid] | > 50
CCc1ccc(Nc2cc(C(COC)CC(=O)O)cc(F)c2N(CC(C)C)CC(C)C)cc1 (single isomer, unassigned) [Example 922, 3-(4-(diisobutylamino)-3-((4-ethylphenyl)amino)-5-fluorophenyl)-4-methoxybutanoic acid] | < 50
CCN(c1ccc(C(CC)(CC)CC(=O)O)cc1Nc1ccc(C#N)cc1)C1CCOCC1 [Example 27, 3-(3-((4-cyanophenyl)amino)-4-(ethyl(tetrahydro-2H-pyran-4-yl)amino)phenyl)-3-ethylpentanoic acid] | < 5
COCC(CC(=O)O)c1ccc(N2CCOC[C@H]2C(C)C)c(Nc2ccc(C#N)cc2)c1 (single isomer, unassigned) [Example 912] | < 5
CCC(CC(=O)O)c1cc(F)c(N(CC)C2CCOCC2)c(Nc2ccc(OC)nc2)c1 (single isomer, unassigned) [Example 142, 3-(4-(ethyl(tetrahydro-2H-pyran-4-yl)amino)-3-fluoro-5-((6-methoxypyridin-3-yl)amino)phenyl) pentanoic acid] | < 5
CCOc1ncc(Nc2cc(C(CC)CC(C)(C)O)ccc2N2CCC(c3ccccc3)CC2)cn1 (single isomer, unassigned) [Example 1349, 4-(3-((2-Ethoxypyrimidin-5-yl)amino)-4-(4-phenylpiperidin-1-yl)phenyl)-2-methylhexan-2-ol] | > 50
CCN(c1ccc(C(CC(=O)O)C2CC2)cc1Nc1ccc(Cl)cc1)C1CCS(=O)(=O)CC1 (single isomer, unassigned) [Example 339 Enantiomer 1, 3-(3-((4-Chlorophenyl)amino)-4-((1,1-dioxidotetrahydro-2H-thiopyran-4-yl)(ethyl)amino)phenyl)-3-cyclopropylpropanoic acid] | < 5
CCOc1ncc(Nc2cc([C@H](CC)CC(O)C(F)(F)F)ccc2N(CC)C2CCOCC2)cn1 (single isomer, unassigned) [Example 1336 D1] | < 50
CCN(c1ccc(C(CC)(CC)CC(=O)O)cc1NC(=O)Nc1ccc(Cl)cc1F)C1CCOCC1 [Example 32, 3-(3-(3-(4-chloro-2-fluorophenyl)ureido)-4-(ethyl(tetrahydro-2H-pyran-4-yl)amino)phenyl)-3-ethylpentanoic acid] | < 5
COCC(CC(=O)O)c1ccc(N(CC(F)F)C2CCOCC2)c(Nc2ccc(C#N)cc2)c1 (single isomer, unassigned) [Example 322, 3-(3-((4-cyanophenyl)amino)-4-((2,2-difluoroethyl)(tetrahydro-2H-pyran-4-yl)amino)phenyl)-4-methoxybutanoic acid] | < 5
CCN(c1ccc(C(C)CC(=O)O)cc1Nc1cnc(OC)nc1)C1CCOCC1 (single isomer, unassigned) [Example 620, 3-(4-(ethyl(tetrahydro-2H-pyran-4-yl)amino)-3-((2-methoxypyrimidin-5-yl)amino)phenyl)butanoic acid] | < 50
CCOc1ccc(Nc2cc(C(C)CC(=O)O)ccc2N(CC)C2CCOCC2)nn1 (single isomer, unassigned) [Example 631, 3-(3-((6-ethoxypyridazin-3-yl)amino)-4-(ethyl (tetrahydro-2H-pyran-4-yl)amino)phenyl)butanoic acid] | < 50
